Test results reported in patent US6326369A, “Bicyclic quinone compounds, their production and use” (Takeda Chemicals Industries, Ltd., priority 1997, dated 2001).
Read-outs that look alike come from different tables or passages of the source.

Tested on: Brain Homogenate
Assay: Peroxylipid formation inhibiting effect in brain homogenate (thiobarbituric acid (TBA) method)
Assay type: biochemical, Wistar rats (male, 12-week old)
Details: 37° C., 30 minutes, pH 7.4
Experimental: JC1:Wistar rats (male, 12-week old) were used as test animals. The rats were sacrificed by decapitation, and the brain was quickly removed and homogenized with 10 ml of 10 mM Tris-HCl buffer (pH 7.4) containing 150 mM KCl. The resulting homogenate was centrifuged at 2,200 rpm, at 4° C., for 10 minutes, and the supernatant was used in the test. 250 μl of the supernatant was put into a 96-well plate, to which was added a test compound and incubated at 37° C. for 30 minutes.
The concentration of glutamic acid and succinic acid, if added prior to the incubation, was 5.0 mM and 2.5 mM, respectively.
To determine the amount of the peroxylipid formed, used was a thiobarblturic acid (TBA) method. Briefly, 50 μl of 35% perchloric acid was added to the incubated mixture, which was then centrifuged at 2,000 rpm, at 4° C., for 10 minutes. The resulting supernatant was transferred into a different 96-well plate in an amount of 200 μl/well. 100 μl/well of TBA (5 mg/ml TBA in 50% acetic acid) was added thereto, and reacted at 80° C. for 1 hour. Then, the reaction mixture was cooled to room temperature, and its absorbance at 532 nm was measured.
On the other hand, a calibration curve was prepared using tetraethoxypropane which is a […] for TBA. In the same manner, the peroxylipid concentration in a sample that had been incubated for 30 minutes in the absence of the test compound, and also the peroxylipid concentration in a sample to which had been added 35% perchloric acid prior to the incubation (in the absence of the test compound) were also obtained. The inhibition percentage was calculating according to the following equation. The 50% inhibitory concentration (IC50) was obtained, using a log-probit method.
Inhibition Percentage (%)=[(C-A)/(C-B)]×100
A: Peroxylipid concentration in the sample to which was added the test compound;
B: Peroxylipid concentration in the sample to which was added 35% perchloric acid prior to the incubation;
C: Peroxylipid concentration in the sample to which was not added the test compound.

[1] = brain homogenate only, read-out: Peroxylipid Formation Inhibiting Effect (IC50) Brain Homogenate Only
[2] = glutamic acid 5.0 mM and succinic acid 2.5 mM added prior to incubation, read-out: Peroxylipid Formation Inhibiting Effect (IC50) Glutamic Acid and Succinic Acid Added

| Structure (SMILES) | IC50 [1] [nM] | IC50 [2] [nM] |
| --- | --- | --- |
| CCOC(=O)CCCCCCCC1CC2=C(C1)C(=O)C(OC)=C(OC)C2=O [Ex. 9, Ethyl 8-(5,6-dimethoxy-4,7-dioxoindan-2-yl)octanoate] | 2300 | 940 |
| COC1=C(OC)C(=O)C2=C(CC(CCCCCCCCO)C2)C1=O [Ex. 10, 2-(8-Hydroxyoctyl)-5,6-dimethoxyindan-4,7-dione] | 1100 | 170 |
